# Assays:
# [1] = test system: NT5 cancer cells; experiment: Inhibition of NT5 cancer cell growth in vitro (crystal violet, O.D. 490 nm); type: cell-based, mouse; settings: 72 hours, FIG. 2
# Protocol: (See FIG. 2). 1×10^4 cells were plated in 24-well plates. Following overnight attachment, cells were treated with C75 or cerulenin diluted in DMSO at 5 mg/ml, with control cells receiving vehicle alone. After 72 hours, cells were stained with crystal violet (0.2% in 10% methanol), solubilized in 1% SDS, and the O.D. measured at 490 nm. Two-tailed t-test: Control-C75 5 μg/ml, p=0.0003; Control-C75 10 μg/ml, p<0.0001; Control-Cerulenin 5 μg/ml, p<0.0001; Control-Cerulenin 10 μg/ml, p<0.0001.
# [2] = test system: NT5 cancer cell allografts; experiment: Growth of NT5 cancer cell allografts in FVB/N mice; type: in vivo; settings: 30 mg/kg intraperitoneal every six days, FIG. 3
# Protocol: (See FIG. 3). Fourteen animals received 0.1 ml packed cultured NT5 cells in the flank. When measurable tumors appeared, seven animals were treated with C75 (30 mg/kg in 0.1 ml RPMI, intraperitoneal injection) every six days and seven animals received vehicle control. Error bars in FIG. 3 represent standard error of the mean.
# [3] = test system: fatty acid synthesis in NT5 cancer cells; experiment: Inhibition of fatty acid synthesis: [14C]acetate incorporation into total lipids in NT5 cells; type: cell-based, mouse; settings: 4 h treatment, [14C]acetate during last 2 h, FIG. 1
# Protocol: (See FIG. 1). 5×10^4 NT5 cells were plated in 24-well plates. Following overnight attachment, cells were treated with cerulenin and C75 diluted in DMSO at 5 mg/ml for 4 h, with control cells receiving vehicle alone. During the last 2 h of drug treatment, cells were treated with 1 μCi [^14C]acetate. Total lipids were then extracted and counted. Statistical analysis (i.e., two tailed t-tests) of the results are as follows: Control-C75 5 μg/ml, p=0.116; Control-C75 10 μg/ml, p=0.018; Control-Cerulenin 5 μg/ml, p=0.002; Control-Cerulenin 10 μg/ml, p=0.002.
# NT cell lines are established from tumors that developed in transgenic mice (Reilly, R., Gottlieb, M., Ercolini, A., Machiels, J., Kane, C., Okoye, F., Muller, W., Dixon, K., and Jaffee, E., “HER-2neu Is a Tumor Rejection Target in Tolerized HER-2/neu Transgenic Mice,” Cancer Research, 60: 3569-3576, 2000; Reilly, R., Machiels, J., Emens, L., Ercolini, A., Okoye, F., Lei, R., Weintraub, D., and Jaffee, E., “The Collaboration of Both Humoral and Cellular HER-2/neu-targeted Immune Responses Is Required for the Complete Eradication of HER-2/neu-expressing Tumors,” Cancer Research, 61: 880-883, 2001), and provide an in vitro model for testing the FAS inhibitors C75 and cerulenin.
# [4] = test system: mammary glands of FVB/N mice; experiment: Mammary gland development in non-transgenic FVB/N control mice treated with C75; type: in vivo; settings: FVB/N animals, FIG. 9
# Protocol: (§1) Fifteen 8-10 week old, neu-N transgenic mice were treated intraperitoneally (ip) with C75 at 30 mg/kg weekly, along with fifteen vehicle controls (RPMI). Three mice from the treatment and control groups were sacrificed by carbon dioxide asphyxiation at two-week intervals beginning at week two (two weeks after the first C75 treatment at 8-10 weeks of age). All animals were injected with 1 mg of BrdU two hours prior to sacrifice. Entire inguinal mammary glands were removed along with the intramammary lymph node that was grossly identifiable. Additionally, kidneys, liver and skin samples were collected from each animal. The […] from one side and the kidneys, liver and skin samples were fixed in neutral-buffered formalin, the other was fixed in Carnoy's fixative for whole-mount preparation. In addition, mammary glands from a non-transgenic age-matched FVB/N control mouse were removed for similar analysis at week 10 (age 18-20 weeks).
# [5] = test system: HER-2/neu breast cancer transgenic mice; experiment: Inhibition of cancer development in HER-2/neu breast cancer transgenic mouse model; type: in vivo
# Description: Derived from the FVB/N strain, neu-N transgenic mice express the non-transforming rat neu cDNA under the control of a mammary-specific promoter. As a consequence, the mice develop spontaneous mammary adenocarcinomas beginning at approximately 125 days, with nearly all of the mice harboring tumors by 300 days (Guy, C., Webster, M., Schaller, M., Parsons, T., Cardiff, R., and Muller, W., “Expression of the neu protooncogene in the mammary epithelium of transgenic mice induces metastatic disease,” Proc. Natl. Acad. Sci. USA, 89: 10578-10582, 1992). […] Although the activated neu model has the advantage of more rapid tumor development (Guy, C., Cardiff, R., and Muller, W., “Activated neu induces rapid tumor progression,” Journal of Biological Chemistry, 271: 7673-7678, 1996), this point mutation has not been identified in human breast cancer (Lofts, F. and Gullick, W., “C-erbB2 amplification and overexpression in human tumors,” Cancer Treat. Res., 61: 161-179, 1992). Thus, the HER-2/neu breast cancer transgenic mouse model more closely resembles human disease where neu is overexpressed, not mutated.
# (See FIG. 4) Thirty HER-2/neu breast cancer transgenic mice were used for the study. Fifteen (15) mice received weekly doses of C75 (30 mg/kg in 0.1 ml RPMI) for three months beginning at 5 weeks of age and 15 mice received vehicle alone. Mice were observed daily and the first appearance of breast tumors were recorded. Two (2) mice in the controls and 6 in the treated group died during the study. […] Fifty-percent (50%) of the control mice developed tumors after approximately 200 days versus 300 days for the C75 treated animals. Moreover, three treated animals remained tumor free for nearly 18 months, the duration of their lives.
# [6] = test system: mammary glands of neu-N transgenic mice; experiment: Mechanism of action: mammary gland whole mounts and immunohistochemistry in neu-N transgenic mice; type: in vivo, mouse; settings: 30 mg/kg ip weekly
# Protocol: as §1
# Following fixation in 10% neutral-buffered formalin for 24 hours, the mammary glands were embedded in paraffin. Six 4 micron slides were prepared from each tissue block, with the first slide stained with hematoxylin and eosin. The remaining unstained sections were utilized for immunohistochemical analysis of the preneoplastic lesions and surrounding breast tissue with the following antibodies: FAS, BrdU and p21/Waf-1 (Dako, Carpinteria, Calif.), Akt and Phospho-Akt (Cell Signaling Technology, Beverly, Mass.), and neu (Santa Cruz Biotechnology, Inc., Santa Cruz, Calif.) apoptosis (ApopTag Peroxidase In Situ Oligo Ligation Kit, Serologicals Corporation, Temecula, Calif.). Staining was assessed by counting the number of positive cells per 500 total cells in the ductal and lobular structures at 400×. Statistical analysis was performed using t-tests on Prism 3 software. The Carnoy's fixed tissue was stained with carmine red as described and whole-mounted on glass slides.
# [7] = 30 mg/kg weekly for three months beginning at 5 weeks of age
# [8] = immunohistochemistry, versus controls and FVB/N mice
# [9] = mammary tissue, versus controls and FVB/N mice
SMILES,growth of NT5 cancer cells (O.D. 490 nm) [1],growth of NT5 tumor cell allografts [2],inhibition of fatty acid synthesis in NT5 cells [3],"morphological difference in mammary structures, C75 treated versus controls [4]","time after which 50% of the mice developed tumors [5, 7] [days]","tumor development (log-rank analysis) [5, 7]","time three treated animals remained tumor free (duration of their lives) ([5]; 30 mg/kg weekly for three months, three of 15 treated animals) [months]","development of cancer ([5]; HER-2/neu transgenic mice, FIG. 4)",time three animals remained tumor free (duration of their lives) ([5]; as restated in the description) [years],"mice that died during the study ([5]; treated group of 15 mice, 30 mg/kg weekly, 2 died in controls) [mice]","tissue restriction of the effects (other normal duct structures in skin, liver or kidney) [6]","number of mammary duct structures, their thickness and number of budding epithelial structures ([6]; following 8-10 weeks of treatment, versus vehicle controls and FVB/N animals)","Akt expression [6, 8]","FAS expression [6, 8]","Phospho-Akt expression [6, 8]","neu expression [6, 8]","p21/Waf1 expression [6, 8]","DNA synthesis (BrdU) [6, 9]","apoptotic changes [6, 9]"
"C=C1C(=O)OC(CCCCCCCC)C1C(=O)O (stereo not drawn) [C75, tetrahydro-3-methylene-2-oxo-5-n-octyl-4-furancarboxylic acid]",significantly reduced the growth of the cancer cells,significantly reduced the growth,inhibit fatty acid synthesis in NT5 cells at levels similar to previous studies with human cell lines,no significant morphological difference,~300,significantly delayed,~18,significantly inhibited the development of cancer,~1.5,6,restricted to the breast epithelial cells that overexpress neu,significant reduction,decreased,decreased,decreased,decreased,decreased,decreased,increased
"C/C=C/C/C=C/CCC(=O)[C@H]1O[C@H]1C(N)=O [cerulenin, 2,3-epoxy-4-oxo-7,10-dodecadienoylamide, reference compound]",significantly reduced the growth of the cancer cells,,inhibit fatty acid synthesis in NT5 cells at levels similar to previous studies with human cell lines,,,,,,,,,,,,,,,,

# From patent US20070142456A1, “Method for inhibiting cancer development by fatty acid synthase inhibitors” (FASgen, LLC, priority 2002, published 2007)
